Experimental data published in US20250302832A1, “PYRAZINE DERIVATIVES AND USES THEREOF” (FOGHORN THERAPEUTICS INC., priority 2022, published 2025).

Assays:
[1] = target: T1, HiBit-BRM fusion protein (Homo sapiens, UniProt P51531); experiment: HiBiT-BRM cell-based degradation assay (Nano-Glo HiBiT lytic detection, 24 h); conditions: HeLa cell line expressing HiBiT-BRM; for DC50: read-out: BRM HiBit Degradation IC50
T1 construct: expressed in transfected cells
In short: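 Stable HeLa HiBiT-BRM cells treated 24 h with compounds (10-point 3-fold dilutions, 30 μM final top dose, duplicate). HiBiT levels read by Nano-Glo lytic luminescence; % degradation normalised to DMSO (high control) and 2 μM reference BRM/BRG1 degrader (low control).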

[2] = target: T2, HiBit-BRG1 fusion protein (Homo sapiens, UniProt P51532); experiment: HiBiT-BRG1 cell-based degradation assay (Nano-Glo HiBiT lytic detection, 24 h); conditions: HeLa cell line expressing HiBit-BRG1 and LgBit; for Dmax: read-out: BRG1 HiBit Degradation Maximum (%); for DC50: read-out: BRMG1 HiBit Degradation IC50
T2 construct: expressed in transfected cells
T2 sequence (P51532 whole entry, the tested form may be a part): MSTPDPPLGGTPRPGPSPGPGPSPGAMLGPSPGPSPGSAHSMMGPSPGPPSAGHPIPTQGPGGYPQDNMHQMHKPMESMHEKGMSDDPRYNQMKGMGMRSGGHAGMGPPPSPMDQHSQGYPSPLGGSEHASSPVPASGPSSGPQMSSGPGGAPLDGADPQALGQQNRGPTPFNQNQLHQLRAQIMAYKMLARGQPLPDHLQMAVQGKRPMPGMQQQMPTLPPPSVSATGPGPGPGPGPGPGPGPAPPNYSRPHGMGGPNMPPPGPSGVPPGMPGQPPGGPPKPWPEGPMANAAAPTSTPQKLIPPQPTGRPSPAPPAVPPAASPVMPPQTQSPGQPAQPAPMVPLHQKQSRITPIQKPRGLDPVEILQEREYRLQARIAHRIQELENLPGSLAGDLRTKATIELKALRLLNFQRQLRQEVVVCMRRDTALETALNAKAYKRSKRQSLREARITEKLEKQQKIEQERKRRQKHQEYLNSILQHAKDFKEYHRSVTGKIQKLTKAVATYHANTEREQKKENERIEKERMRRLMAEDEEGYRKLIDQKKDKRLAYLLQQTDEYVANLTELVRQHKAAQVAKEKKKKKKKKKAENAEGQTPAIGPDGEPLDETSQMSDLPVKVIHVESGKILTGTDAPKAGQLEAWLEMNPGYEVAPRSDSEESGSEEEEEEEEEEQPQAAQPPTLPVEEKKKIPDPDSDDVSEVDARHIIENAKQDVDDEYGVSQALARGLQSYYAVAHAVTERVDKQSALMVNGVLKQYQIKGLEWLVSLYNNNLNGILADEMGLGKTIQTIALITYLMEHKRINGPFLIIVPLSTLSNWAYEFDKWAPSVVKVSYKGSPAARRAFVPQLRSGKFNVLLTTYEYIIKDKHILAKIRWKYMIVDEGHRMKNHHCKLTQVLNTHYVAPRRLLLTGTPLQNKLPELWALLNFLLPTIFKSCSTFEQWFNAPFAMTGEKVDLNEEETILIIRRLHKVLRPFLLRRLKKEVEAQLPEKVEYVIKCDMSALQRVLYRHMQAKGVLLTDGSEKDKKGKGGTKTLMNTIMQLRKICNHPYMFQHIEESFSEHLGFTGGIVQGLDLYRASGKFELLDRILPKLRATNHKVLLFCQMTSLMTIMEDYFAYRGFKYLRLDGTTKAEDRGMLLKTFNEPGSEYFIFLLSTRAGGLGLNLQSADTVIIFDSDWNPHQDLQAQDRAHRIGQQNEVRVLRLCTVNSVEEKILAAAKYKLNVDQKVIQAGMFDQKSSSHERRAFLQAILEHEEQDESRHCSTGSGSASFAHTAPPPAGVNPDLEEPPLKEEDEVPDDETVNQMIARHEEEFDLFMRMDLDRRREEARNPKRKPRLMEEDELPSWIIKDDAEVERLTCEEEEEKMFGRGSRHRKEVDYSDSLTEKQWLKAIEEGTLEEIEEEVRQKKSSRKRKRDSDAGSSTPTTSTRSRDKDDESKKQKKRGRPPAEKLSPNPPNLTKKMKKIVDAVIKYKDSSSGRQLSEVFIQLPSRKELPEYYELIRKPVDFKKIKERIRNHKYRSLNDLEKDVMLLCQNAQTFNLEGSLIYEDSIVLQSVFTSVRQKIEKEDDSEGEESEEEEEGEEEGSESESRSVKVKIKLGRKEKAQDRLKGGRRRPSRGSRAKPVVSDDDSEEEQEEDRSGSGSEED
In short: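 HeLa cells stably expressing HiBiT-BRG1 and LgBiT, 5000 per well, compound-treated 24 h, equilibrated 15 min at room temperature, then lysed with LgBiT-containing Nano-Glo HiBiT lytic reagent and luminescence read. % degradation normalised between DMSO (high control) and 2 μM reference BRM/BRG1 degrader (low control).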

T1 sequence (P51531 whole entry, the tested form may be a part): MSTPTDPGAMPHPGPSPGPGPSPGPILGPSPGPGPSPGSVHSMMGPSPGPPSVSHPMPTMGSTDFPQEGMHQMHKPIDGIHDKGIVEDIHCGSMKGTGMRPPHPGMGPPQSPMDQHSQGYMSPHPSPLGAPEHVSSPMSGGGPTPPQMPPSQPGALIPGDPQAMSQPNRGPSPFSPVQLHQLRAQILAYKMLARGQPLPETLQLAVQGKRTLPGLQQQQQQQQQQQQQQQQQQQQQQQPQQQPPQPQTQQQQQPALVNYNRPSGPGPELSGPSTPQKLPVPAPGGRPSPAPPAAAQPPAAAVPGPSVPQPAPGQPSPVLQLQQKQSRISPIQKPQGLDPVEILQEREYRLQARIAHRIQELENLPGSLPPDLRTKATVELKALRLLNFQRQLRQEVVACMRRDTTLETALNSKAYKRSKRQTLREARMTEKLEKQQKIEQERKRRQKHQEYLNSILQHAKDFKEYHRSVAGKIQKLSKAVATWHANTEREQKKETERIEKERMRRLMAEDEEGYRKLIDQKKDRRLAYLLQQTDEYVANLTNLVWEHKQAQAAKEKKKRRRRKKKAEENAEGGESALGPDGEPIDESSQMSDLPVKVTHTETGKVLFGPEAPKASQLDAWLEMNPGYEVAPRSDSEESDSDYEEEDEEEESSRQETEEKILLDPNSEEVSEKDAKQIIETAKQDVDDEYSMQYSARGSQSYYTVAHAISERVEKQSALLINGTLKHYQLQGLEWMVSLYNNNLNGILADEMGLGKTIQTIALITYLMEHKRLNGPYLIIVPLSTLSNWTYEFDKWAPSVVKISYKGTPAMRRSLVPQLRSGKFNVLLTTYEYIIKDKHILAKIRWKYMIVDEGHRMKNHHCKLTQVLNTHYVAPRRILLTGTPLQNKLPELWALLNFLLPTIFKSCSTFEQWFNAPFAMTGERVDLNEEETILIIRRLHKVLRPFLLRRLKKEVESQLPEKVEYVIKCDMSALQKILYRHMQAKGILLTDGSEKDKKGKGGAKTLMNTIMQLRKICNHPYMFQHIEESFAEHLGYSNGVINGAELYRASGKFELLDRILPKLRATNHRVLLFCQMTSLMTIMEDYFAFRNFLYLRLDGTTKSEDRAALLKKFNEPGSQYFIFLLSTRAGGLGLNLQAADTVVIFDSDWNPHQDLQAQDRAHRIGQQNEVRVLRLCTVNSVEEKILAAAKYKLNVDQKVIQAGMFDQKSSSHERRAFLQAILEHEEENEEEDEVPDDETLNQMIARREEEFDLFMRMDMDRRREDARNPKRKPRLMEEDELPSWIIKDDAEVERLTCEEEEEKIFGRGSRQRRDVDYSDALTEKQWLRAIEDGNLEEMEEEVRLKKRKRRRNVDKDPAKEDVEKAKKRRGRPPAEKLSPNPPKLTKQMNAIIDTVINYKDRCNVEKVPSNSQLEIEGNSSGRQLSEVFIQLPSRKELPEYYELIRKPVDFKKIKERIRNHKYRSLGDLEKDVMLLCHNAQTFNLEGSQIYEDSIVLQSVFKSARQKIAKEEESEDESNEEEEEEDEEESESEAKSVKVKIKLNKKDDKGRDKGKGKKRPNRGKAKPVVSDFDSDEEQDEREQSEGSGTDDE

Row | SMILES | DC50 [1] [nM] | Dmax [2] [%] | DC50 [2] [nM] | BRM HiBit Degradation Maximum (%) [1]
1 | Cc1ncsc1-c1ccc([C@H](C)NC(=O)[C@@H]2C[C@@H](O)CN2C(=O)[C@@H](c2cc(OCC(=O)N3CC(c4cc5nnc(-c6ccccc6O)cc5[nH]4)C3)no2)C(C)C)cc1 [Compound 7, (2S,4R)-4-hydroxy-1-((R)-2-(3-(2-(3-(3-(2-hydroxyphenyl)-5H-pyrrolo[3,2-c]pyridazin-6-yl)azetidin-1-yl)-2-oxoethoxy)isoxazol-5-yl)-3-methylbutanoyl)-N-((S)-1-(4-(4-methylthiazol-5-yl)phenyl)ethyl)pyrrolidine-2-carboxamide] | > 100 | < 50 |  | A (“A” indicates maximum degradation ≥75%)
2 | Cc1ncsc1-c1ccc([C@H](C)NC(=O)[C@@H]2C[C@@H](O)CN2C(=O)[C@@H](c2cc(N(C)CCN3CC(c4cc5nnc(-c6ccccc6O)cc5n4C)C3)no2)C(C)C)cc1 [Compound 10, (2S,4R)-4-hydroxy-1-((R)-2-(3-((2-(3-(3-(2-hydroxyphenyl)-5-methyl-5H-pyrrolo[3,2-c]pyridazin-6-yl)azetidin-1-yl)ethyl)(methyl)amino)isoxazol-5-yl)-3-methylbutanoyl)-N-((S)-1-(4-(4-methylthiazol-5-yl)phenyl)ethyl)pyrrolidine-2-carboxamide] | > 10 | > 50 | > 1000 | A (“A” indicates maximum degradation ≥75%)
3 | Cc1ncsc1-c1ccc([C@H](C)NC(=O)[C@@H]2C[C@@H](O)CN2C(=O)[C@@H](c2cc(N3CC4(CC(c5cc6nnc(-c7ccccc7O)cc6n5C5CCC5)C4)C3)no2)C(C)C)cc1 [Compound 105, (2S,4R)-1-[(2R)-2-(3-{6-[5-cyclobutyl-3-(2-hydroxyphenyl)pyrrolo[3,2-c]pyridazin-6-yl]-2-azaspiro[3.3]heptan-2-yl}-1,2-oxazol-5-yl)-3-methylbutanoyl]-4-hydroxy-N-[(1S)-1-[4-(4-methyl-1,3-thiazol-5-yl)phenyl]ethyl]pyrrolidine-2-carb oxamide] | < 10 | < 50 |  | A (“A” indicates maximum degradation ≥75%)
4 | Cc1ncsc1-c1ccc([C@H](C)NC(=O)[C@@H]2C[C@@H](O)CN2C(=O)[C@@H](c2cc(N3CC4(CCC(c5cc6nnc(-c7ccccc7O)cc6n5C5CC5)CC4)C3)no2)C(C)C)cc1 [Compound 87, (2S,4R)-1-((R)-2-(3-(7-(5-cyclopropyl-3-(2-hydroxyphenyl)-5H-pyrrolo[3,2-c]pyridazin-6-yl)-2-azaspiro[3.5]nonan-2-yl)isoxazol-5-yl)-3-methylbutanoyl)-4-hydroxy-N-((S)-1-(4-(4-methylthiazol-5-yl)phenyl)ethyl)pyrrolidine-2-carboxamide] | < 10 | > 75 | < 10 | A (“A” indicates maximum degradation ≥75%)
5 | CC(C)NC(=O)[C@@H]1C[C@@H](O)CN1C(=O)C(c1cc(N2CC3(CC(c4cc5nnc(-c6ccccc6O)cc5n4C4CCC4)C3)C2)no1)C(C)C (stereo partly drawn) [Compound 54, (2S,4R)-1-(2-(3-(6-(5-cyclobutyl-3-(2-hydroxyphenyl)-5H-pyrrolo[3,2-c]pyridazin-6-yl)-2-azaspiro[3.3]heptan-2-yl)isoxazol-5-yl)-3-methylbutanoyl)-4-hydroxy-N-isopropylpyrrolidine-2-carboxamide] | > 10 | < 50 |  | A (“A” indicates maximum degradation ≥75%)
6 | C#Cc1ccc([C@H](C)NC(=O)[C@@H]2C[C@@H](O)CN2C(=O)C(c2cc(N3CC4(CC(c5cc6nnc(-c7ccccc7O)cc6n5C5CCC5)C4)C3)no2)C(C)C)c(Cl)c1 (stereo partly drawn) [Compound 121, (2S,4R)-N-((S)-1-(2-chloro-4-ethynylphenyl)ethyl)-1-(2-(3-(6-(5-cyclobutyl-3-(2-hydroxyphenyl)-5H-pyrrolo[3,2-c]pyridazin-6-yl)-2-azaspiro[3.3]heptan-2-yl)isoxazol-5-yl)-3-methylbutanoyl)-4-hydroxypyrrolidine-2-carboxamide] | > 10 | < 50 |  | A (“A” indicates maximum degradation ≥75%)
7 | Cc1ncsc1-c1ccc([C@H](C)NC(=O)[C@@H]2C[C@@H](O)CN2C(=O)[C@@H](c2cc(OCCN3C[C@@H]4[C@H](C3)[C@H]4n3c(C)cc4nnc(-c5ccccc5O)cc43)no2)C(C)C)cc1 [Compound 33, (2S,4R)-4-hydroxy-1-[(2R)-2-(3-{2-[(1R,5S,6S)-6-[3-(2-hydroxyphenyl)-6-methylpyrrolo[3,2-c]pyridazin-5-yl]-3-azabicyclo[3.1.0]hexan-3-yl]ethoxy}-1,2-oxazol-5-yl)-3-methylbutanoyl]-N-[(1S)-1-[4-(4-methyl-1,3-thiazol-5-yl)phenyl]ethyl]pyrrolidine-2-carboxamide] |  | < 50 |  | C (“C” indicates maximum degradation <50%)
8 | Cc1ncsc1-c1ccc([C@H](C)NC(=O)[C@@H]2C[C@@H](O)CN2C(=O)[C@@H](c2cc(N3CCC(c4cc5nnc(-c6ccccc6O)cc5n4C4CC4)CC3)no2)C(C)C)cc1 [Compound 76, (2S,4R)-1-((R)-2-(3-(4-(5-cyclopropyl-3-(2-hydroxyphenyl)-5H-pyrrolo[3,2-c]pyridazin-6-yl)piperidin-1-yl)isoxazol-5-yl)-3-methylbutanoyl)-4-hydroxy-N-((S)-1-(4-(4-methylthiazol-5-yl)phenyl)ethyl)pyrrolidine-2-carboxamide] | < 10 | < 50 |  | A (“A” indicates maximum degradation ≥75%)

The next lines start with results.

Row | DC50 [1] [nM] | Dmax [2] [%] | DC50 [2] [nM] | SMILES | BRM HiBit Degradation Maximum (%) [1]
9 | < 10 | > 75 | < 10 | Cc1ncsc1-c1ccc([C@H](C)NC(=O)[C@@H]2C[C@@H](O)CN2C(=O)[C@@H](c2cc(-c3cnc(N4CC[C@H](c5cc6nnc(-c7ccccc7O)cc6n5C5(C)CC5)C4)nc3)no2)C(C)C)cc1 [Compound 104, (2S,4R)-4-hydroxy-1-((R)-2-(3-(2-((S)-3-(3-(2-hydroxyphenyl)-5-(1-methylcyclopropyl)-5H-pyrrolo[3,2-c]pyridazin-6-yl)pyrrolidin-1-yl)pyrimidin-5-yl)isoxazol-5-yl)-3-methylbutanoyl)-N-((S)-1-(4-(4-methylthiazol-5-yl)phenyl)ethyl)pyrrolidine-2-carboxamide] | A (“A” indicates maximum degradation ≥75%)
10 | < 10 | < 50 |  | CC(C)[C@@H](C(=O)N1C[C@H](O)C[C@H]1C(=O)N[C@@H](C)c1ccc(F)cc1)c1cc(-c2cnc(N3CC[C@H](c4cc5nnc(-c6ccccc6O)cc5n4C4CC4)C3)nc2)no1 [Compound 92, (2S,4R)-1-((R)-2-(3-(2-((S)-3-(5-cyclopropyl-3-(2-hydroxyphenyl)-5H-pyrrolo[3,2-c]pyridazin-6-yl)pyrrolidin-1-yl)pyrimidin-5-yl)isoxazol-5-yl)-3-methylbutanoyl)-N-((S)-1-(4-fluorophenyl)ethyl)-4-hydroxypyrrolidine-2-carboxamide] | A (“A” indicates maximum degradation ≥75%)
11 | < 10 | > 50 | > 10 | Cc1ncsc1-c1ccc([C@H](C)NC(=O)[C@@H]2C[C@@H](O)CN2C(=O)[C@@H](c2cc(N3CC[C@H](c4cc5nnc(-c6ccccc6O)cc5n4C4CC4)C3)no2)C(C)C)cc1 [Compound 99, (2S,4R)-1-((R)-2-(3-((S)-3-(5-cyclopropyl-3-(2-hydroxyphenyl)-5H-pyrrolo[3,2-c]pyridazin-6-yl)pyrrolidin-1-yl)isoxazol-5-yl)-3-methylbutanoyl)-4-hydroxy-N-((S)-1-(4-(4-methylthiazol-5-yl)phenyl)ethyl)pyrrolidine-2-carboxamide] | A (“A” indicates maximum degradation ≥75%)
12 | < 10 | > 50 | > 10 | Cc1ncsc1-c1ccc([C@H](C)NC(=O)[C@@H]2C[C@@H](O)CN2C(=O)[C@@H](c2cc(-c3ccnc(N4CC[C@@H](c5cc6nnc(-c7ccccc7O)cc6n5C5CC5)C4)c3)no2)C(C)C)cc1 [Compound 82, (2S,4R)-1-[(2R)-2-(3-{2-[(3R)-3-[5-cyclopropyl-3-(2-hydroxyphenyl)pyrrolo [3,2-c]pyridazin-6-yl]pyrrolidin-1-yl]pyridin-4-yl}-1,2-oxazol-5-yl)-3-methylbutanoyl]-4-hydroxy-N-[(1S)-1-[4-(4-methyl-1,3-thiazol-5-yl)phenyl]ethyl]pyrrolidine-2-carboxamide] | A (“A” indicates maximum degradation ≥75%)
13 | > 10 | < 50 |  | Cc1ncsc1-c1ccc([C@H](C)NC(=O)[C@@H]2C[C@@H](O)CN2C(=O)[C@@H](c2cc(-c3ccnc(N4CC[C@H](c5cc6nnc(-c7ccccc7O)cc6n5C5CC5)C4)n3)no2)C(C)C)cc1 [Compound 41] | A (“A” indicates maximum degradation ≥75%)
14 | > 10 | < 50 |  | Cc1ncsc1-c1ccc([C@H](C)NC(=O)[C@@H]2C[C@@H](O)CN2C(=O)[C@@H](C(C)C)n2cc(-c3cnc(N4CC[C@H](c5cc6nnc(-c7ccccc7O)cc6n5C5CC5)C4)nc3)nn2)cc1 [Compound 75, (2S,4R)-1-((R)-2-(4-(2-((S)-3-(5-cyclopropyl-3-(2-hydroxyphenyl)-5H-pyrrolo[3,2-c]pyridazin-6-yl)pyrrolidin-1-yl)pyrimidin-5-yl)-1H-1,2,3-triazol-1-yl)-3-methylbutanoyl)-4-hydroxy-N—((S)-1-(4-(4-methylthiazol-5-yl)phenyl)ethyl)pyrrolidine-2-carboxamide] | A (“A” indicates maximum degradation ≥75%)
